Measurements as given in patent publication US6921840B1 (The Trustees of the University of Pennsylvania, priority 1999, dated 2005).

Legend:
serotonin transporters = experiment: SPECT imaging in baboons; conditions: baboon, 120 minutes post-i.v. injection
Excerpt: The acquisition of SPECT images were obtained by a triple-head gamma camera equipped with ultra high resolution fan-beam collimators (Picker Prism 3000). […] The projection images were reconstructed by filtered-back projection. Then, a 3D, low pass Butterworth filter was applied. For uniform attenuation correction, Chang's first order method was used.

[1] = In vitro stability of radioiodinated ligand; format: physicochemical; conditions: prolonged standing (>20 hr) at 0-4° C. in saline solution
[2] = at 2 to 6 hr, Biegon et al. 1993; cited from earlier work

Structure (SMILES)	ratio of MB/CER uptake (serotonin transporters)	in vitro stability [1]	specific regional binding ratio, hypothalamus [2]
CN(C)Cc1ccccc1Sc1ccc(I)cc1CO [[^123I]IDAM]	2.4	no decomposition observed	
O=[N+]([O-])c1ccc2nc(N3CCNCC3)ccc2c1I [[^123I]5-I-6-NO2-quipazine, 5-iodo-6-nitroquipazine]			4.0
